Where two headings read alike, the source gives them in different places.
How the values were obtained:
[1] = tested on: kun ming murine brain cancer cell line B22; experiment: kun ming mouse model of human brain cancer, growth of the tumor (Example 6); conditions: B22 tumor-bearing mice, 30 consecutive days of treatment, sacrificed on 31st day; AY/NY 0.3 ml oral once per day, BCNU 0.8 mg/kg/day s.c.
Method: (§1) The biological composition comprising 10^8 cells per ml of activated and conditioned yeast cells of the strain Saccharomyces cerevisiae Hansen strain AS2.501 was prepared by the methods described in Section 5.1 and subsections therein.
The mice injected with tumor cells were immediately divided into 4 experimental groups of ten mice per group and one control group. The four experimental groups were triplicated (i.e., using a total of 120 mice in the experimental groups).
The mice received the biological compositions, untreated yeast cells, BCNU or saline on the same day as the tumor cells were transplanted. The mice in group CK2 also started receiving saline on the same day as the other four groups. The biological compositions, untreated yeast cells and saline were administered orally by a feeding tube and the BCNU by subcutaneous injection for 30 consecutive days. […] The weight of the mice and the weight of the tumor were determined by standard techniques.

[2] = tested on: kun ming murine brain cancer cell line B22; conditions: 2BCNU 1.2 mg/kg/day s.c.; for Number of live animals remaining in the groups after 30 days of treatment: 30 mice per group
Method: The survival time of mice after tumor injection and treatment was studied.
as §1
The animals were prepared in a similar manner as described in Section 6.1.
The mice injected with tumor cells were immediately divided into 4 experimental groups of ten mice per group and one control group. The four experimental groups were triplicated (i.e., using a total of 120 mice in the experimental groups). In group 2AY, the mice received 0.5 ml of the biological composition once per day. In group 2NY, the mice received 0.5 ml of the untreated yeast cells once per day. In group 2BCNU, the mice were injected subcutaneously with 1.2 mg of chloroethylnitrosourea (BCNU) per kg body weight per day. In group 2CK1, the mice received 0.5 ml of physiological saline once per day.
The mice received the biological compositions, untreated yeast cells, BCNU or saline on the same day as the tumor cells were transplanted. The mice in group 2CK2 also started receiving saline on the same day as the other four groups. The biological compositions, untreated yeast cells and saline were administered orally by a feeding tube and the BCNU by subcutaneous injection for 30 consecutive days. The mice were observed over 6 months from the day of tumor inoculation and survival was recorded. The weight of the mice and the weight of the tumor were determined by standard techniques.

[3] = tested on: Wistar King rat brain cancer cell line WKS-1; experiment: Wistar rat model of human brain cancer, growth of the tumor (Example 8); format: in vivo; conditions: WKS-1 tumor-bearing rats, 30 consecutive days of treatment, sacrificed on 31st day; AY/NY 0.8 ml oral once per day, VCR 3 mg/kg/day i.v.
Method: The growth of the tumor in the rats was studied.
About 2×10^7 viable tumor cells of the Wistar King rat brain cancer type WKS-1 (obtainable from the Shanghai Medical University, Shanghai, China) in about 0.4 ml culture suspension were injected subcutaneously into the animals.
In group AY, the rats received 0.8 ml of the biological composition once per day. In group NY, the rats received 0.8 ml of the untreated yeast cells once per day. […] In group CK1, the rats received 0.8 ml of physiological saline once per day.
On the 31st day from tumor inoculation, the rats were sacrificed.

[4] = tested on: Wistar King rat brain cancer cell line WKS-1; conditions: 2VCR 4.5 mg/kg/day i.v.; for Number of live animals remaining in the groups after 30 days of treatment: 30 rats per group
Method: The survival time of rats after tumor injection and treatment was studied.
as §1
The animals were prepared in a similar manner as described in Section 8.1.
The rats injected with tumor cells were immediately divided into 4 experimental groups of ten rats per group and one control group. The four experimental groups were triplicated (i.e., using a total of 120 rats in the experimental groups). In group 2AY, the rats received 1.2 ml of the biological composition once per day. In group 2NY, the rats received 1.2 ml of the untreated yeast cells once per day. In group 2VCR, the rats were injected intravenously with 4.5 mg of […] (VCR) per kg body weight per day. In group 2CK1, the rats received 1.2 ml of physiological saline once per day.
The rats received the biological compositions, untreated yeast cells, VCR, or saline on the same day as the tumor cells were transplanted. The rats in group 2CK2 also started receiving saline on the same day as the other four groups. The biological compositions, untreated yeast cells and saline were administered orally by a feeding tube and the VCR by intravenous injection for 30 consecutive days. The rats were observed over 6 months from the day of tumor inoculation and survival was recorded. The weight of the rats and the weight of the tumor were determined by standard techniques.

[5] = mice that survived, observed over 6 months, 2AY/2NY 0.5 ml oral per day, 30 days
[6] = rats that survived, observed over 6 months, 2AY/2NY 1.2 ml oral per day, 30 days

## O=NN(CCCl)C(=O)NCCCl [BCNU, chloroethylnitrosourea]
[1]
  mean weight of mice and standard deviation: 18.4 ± 3.4 g
  mean weight of tumor nodules and standard deviation: 1.02 ± 0.52 mg
[2]; 0 month after cessation of treatment, 2AY/2NY 0.5 ml oral per day
  Number of live animals remaining in the groups after 30 days of treatment: 30
[2]; 1 month after cessation of treatment, 2AY/2NY 0.5 ml oral per day
  Number of live animals remaining in the groups after 30 days of treatment: 21
[2]; 2NY 0.5 ml oral per day, 30 days, observed over 6 months
  survival outcome during the experiment: all died during the experiment
[2]; 2 months after cessation of treatment, 2AY/2NY 0.5 ml oral per day
  Number of live animals remaining in the groups after 30 days of treatment: 15
[2]; 3 months after cessation of treatment, 2AY/2NY 0.5 ml oral per day
  Number of live animals remaining in the groups after 30 days of treatment: 4
[2]; 4 months after cessation of treatment, 2AY/2NY 0.5 ml oral per day
  Number of live animals remaining in the groups after 30 days of treatment: 0
[2]; 5 months after cessation of treatment, 2AY/2NY 0.5 ml oral per day
  Number of live animals remaining in the groups after 30 days of treatment: 0
[2]; 6 months after cessation of treatment, 2AY/2NY 0.5 ml oral per day
  Number of live animals remaining in the groups after 30 days of treatment: 0
[2]; [5]
  mean weight of mice and standard deviation: all animals dead
  mean weight of tumor nodules and standard deviation: all animals dead

## CC[C@]1(O)C[C@@H]2CN(CCc3c([nH]c4ccccc34)[C@@](C(=O)OC)(c3cc4c(cc3OC)N(C)[C@H]3[C@@](O)(C(=O)OC)[C@H](OC(C)=O)[C@]5(CC)C=CCN6CC[C@]43[C@@H]65)C2)C1 [VCR, vinblastine]
[3]
  mean weight of rats and standard deviation: 188.3 ± 8.3 g
  mean weight of tumor nodules and standard deviation: 2.87 ± 2.54 g
[4]; 0 month after cessation of treatment, 2AY/2NY 1.2 ml oral per day
  Number of live animals remaining in the groups after 30 days of treatment: 30
[4]; 1 month after cessation of treatment, 2AY/2NY 1.2 ml oral per day
  Number of live animals remaining in the groups after 30 days of treatment: 30
[4]; 2NY 1.2 ml oral per day, 30 days, observed over 6 months
  survival outcome during the experiment: all died during the experiment
[4]; 2 months after cessation of treatment, 2AY/2NY 1.2 ml oral per day
  Number of live animals remaining in the groups after 30 days of treatment: 30
[4]; 3 months after cessation of treatment, 2AY/2NY 1.2 ml oral per day
  Number of live animals remaining in the groups after 30 days of treatment: 17
[4]; 4 months after cessation of treatment, 2AY/2NY 1.2 ml oral per day
  Number of live animals remaining in the groups after 30 days of treatment: 7
[4]; 5 months after cessation of treatment, 2AY/2NY 1.2 ml oral per day
  Number of live animals remaining in the groups after 30 days of treatment: 3
[4]; 6 months after cessation of treatment, 2AY/2NY 1.2 ml oral per day
  Number of live animals remaining in the groups after 30 days of treatment: 0
[4]; [6]
  mean weight of rats and standard deviation: all animals dead
  mean weight of tumor nodules and standard deviation: all animals dead
